From patent US10034860B2, “Estrogen receptor modulator for the treatment of locally advanced or metastatic estrogen receptor positive breast cancer” (Genentech, Inc., priority 2013, dated 2018)

Key:
[1] = tested on: breast cancer cell lines; assay: breast tumor cell proliferation; type: cell-based
[2] = oral bioavailability; details: in vivo
[3] = tested on: xenograft models of ER+ breast cancer; assay: tamoxifen-sensitive and tamoxifen-resistant xenograft models of ER+ breast cancer; type: in vivo
[4] = tested on: advanced or metastatic ER+ (HER2−) breast cancer; assay: Phase I clinical trial: safety and clinical benefit; type: in vivo
Description: The MTD and/or RP2D will be defined as the dose with ≤1 out of 6 patients with Dose Limiting Toxicity (DLT). Dose Limiting Toxicity (DLT) Definition: Any Grade ≥3 non-hematology toxicity (excluding alopecia); Any Grade ≥3 hematology toxicity >7 days; Any Grade toxicity that leads to study drug interruption >7 days.
Disease assessments will be performed. Imaging studies will include a CT scan of the chest, abdomen, and pelvis, plus a bone scan. Radiographic confirmation of objective tumor response or disease progression will be based on RECIST v1.1 (Eisenhauer, 2009). For new bone lesions detected on bone scans, a second imaging modality (e.g., CT or MRI) will be required to confirm progression.
(§1) A preliminary analysis of the first 41 patients enrolled in the Phase I study described in Example 1 was conducted. 41 patients were enrolled in the Phase I portion of the study, across 9 different dose escalation cohorts. The patients were postmenopausal women with advanced or metastatic breast cancer that had previously relapsed or progressed following prior therapy with the aromatase inhibitors anastrozole, exemestane, and letrozole (90%), chemotherapy (68%), including capecitabine (27%), tamoxifen (54%), fulvestrant (41%), everolimus (19%), and also other investigational agents (17%).

[5] = set-up: species or system postmenopausal women; details: in vivo
Experimental: If the safety and PK profile seen in the Phase I (dose escalation) portion of the study are deemed favorable to justify further continuation of the study, dose escalation will be followed by an expansion cohort to further confirm safety and tolerability and assess preliminary evidence of antitumor activity (Phase IIa).
as §1

[6] = tested on: ER and Ki-67 levels in tumor specimens; assay: Phase I clinical trial: tumor biopsies, ER and Ki-67 levels; set-up: species or system postmenopausal women; details: in vivo
Description: Pre- and post-treatment tumor biopsies (soft tissue or visceral lesions) will be collected to evaluate: • Tumor Histology; tumor vs. stroma, vs fibrotic tissue • ERα and PR protein levels by immunohistochemistry or immunofluorescence • Proliferative Index (Ki67) • ER target gene modulation: Examples of ER target genes thay maybe monitored include, but are not limited to: AGR2, AREG, C3, CCND1, CXCL12, ERBB2, GREB1, IL6, IRS1, PDZK1, PGR, SEMA3B, TFF1, TFF2, TFF3, TOP2A, WISP2. Circulating Tumor DNA (ctDNA)
as §1

SMILES | breast tumor cell proliferation [1] | oral bioavailability [2] | tolerability ([3]; all doses, xenograft models) | efficacious dose range ([3]; all xenograft models) [mg/kg/day] | anti-tumor activity ([3]; tamoxifen-sensitive and tamoxifen-resistant xenograft models) | safety and tolerability ([4]; 41 patients, progressed on a median of 4 prior treatments) | preliminary overall clinical benefit rate ([4]; all patients, preliminary analysis) [%] | preliminary clinical benefit rate ([4]; patients previously treated with fulvestrant) [%] | dose at which target plasma concentrations were achieved ([5]; female, human) [mg QD] | pharmacokinetic profile ([5]; po) | ER and Ki-67 levels in tumor specimens [6] | efficacy compared with the acrylic acid compound ([3]; tamoxifen-resistant xenograft models)
CC/C(=C(/c1ccc(/C=C/C(=O)O)cc1)c1ccc2[nH]ncc2c1)c1ccc(F)cc1Cl [(E)-3-(4-((E)-2-(2-chloro-4-fluorophenyl)-1-(1H-indazol-5-yl)but-1-en-1-yl)phenyl)acrylic acid] | inhibition of breast tumor cell proliferation | good oral bioavailability | very well tolerated | 10 to 100 | dose dependent anti-tumor activity | safe and well tolerated | 42 | 35 | ≥ 600 | linear and dose proportional | reduced | 
C[C@]12CC[C@@H]3c4ccc(O)cc4C[C@@H](CCCCCCCCC[S+]([O-])CCCC(F)(F)C(F)(F)F)[C@H]3[C@@H]1CC[C@@H]2O (stereo partly drawn) [fulvestrant, reference compound] |  |  |  |  |  |  |  |  |  |  |  | less efficacious
